Data taken from DBAASP.
Converted amounts (≈) assume the structure as drawn. “And” between values parts separate entries of the source, which are not always exact repeats. Equal entries are not always repeated.

Legend:
Assay in all cases: ≥ marks a high value that may be exact or a test limit, other limits are often not marked, values filed in µg/mL are converted to µM
[1] = system: Staphylococcus aureus ATCC 12600
[2] = system: Staphylococcus aureus NCTC 10788
[3] = system: Escherichia coli NCTC 10418
[4] = system: Staphylococcus aureus NCTC 8325
[5] = system: Candida albicans NCPF 1467
[6] = system: Staphylococcus aureus ATCC 25923
[7] = system: Candida albicans ATCC 90028
[8] = system: Staphylococcus aureus ATCC 12493
[9] = system: Escherichia coli ATCC 25922
[10] = system: Escherichia coli ATCC 11775
Escherichia coli W160-37 = system: Escherichia coli W160-37
Staphylococcus aureus = system: Staphylococcus aureus
Pseudomonas aeruginosa = system: Pseudomonas aeruginosa
[11] = system: Pseudomonas aeruginosa ATCC 27853
[12] = system: Staphylococcus aureus ATCC 33591
[13] = system: Staphylococcus epidermidis ATCC 35984
[14] = system: Staphylococcus aureus MTCC 9542
Escherichia coli MG1655 = system: Escherichia coli MG1655
[15] = system: Bacillus subtilis MTCC 14416
Vibrio cholerae = system: Vibrio cholerae
[16] = system: Candida albicans ATCC 10231
Botrytis cinerea = system: Botrytis cinerea
[17] = system: Pectobacterium carotovorum
Bacillus subtilis = system: Bacillus subtilis
[18] = system: Enterococcus faecalis ATCC 29212
[19] = system: Staphylococcus aureus ATCC 43300
[20] = system: Bacillus subtilis IFO 3513
[21] = system: Escherichia coli IFO 12734
[22] = system: Staphylococcus aureus IFO 12732
[23] = system: Bacillus megaterium ATCC 19213
[24] = system: Bacillus subtilis NBRC 3513
[25] = system: Staphylococcus epidermidis NBRC 12933
[26] = system: Staphylococcus aureus NBRC 12732
[27] = system: Candida albicans ATCC 64550
[28] = system: Pseudomonas aeruginosa PAO1

CC[C@H](C)[C@@H]1NC(=O)[C@H](CC(C)C)NC(=O)[C@@H](NC(=O)[C@H](Cc2ccccc2)NC(=O)[C@H](CC(C)C)NC(=O)[C@H](CCCCN)NC(=O)[C@@H]2CCCN2C(=O)[C@H](CC(C)C)NC(=O)[C@H](C)NC(=O)[C@H](C)NC(=O)[C@H](CC(C)C)NC(=O)[C@H](C)NC(=O)[C@H](CC(C)C)NC(=O)[C@H](CO)NC(=O)[C@H](CC(C)C)NC(=O)[C@@H](N)Cc2ccccc2)CSSC[C@@H](C(=O)O)NC(=O)[C@H](CCCCN)NC(=O)[C@H](CCCCN)NC(=O)[C@H](Cc2ccccc2)NC1=O [FLSLALAALPKLFCLIFKKC]
MIC [1]: 12.5 µM (≈ 28 µg/mL) | MIC [2]: ≥ 32 µM | MIC [3]: ≥ 512 µM | MIC [4]: 13 µM (≈ 29.1 µg/mL) | MIC [5]: ≥ 32 µM | MIC [6]: > 60 µM | MIC [7]: ≥ 100 µM | MIC [8]: ≥ 32 µM | MIC [9]: > 60 µM and 100 µM | MIC [10]: 25 µM (≈ 55.9 µg/mL)

CC[C@H](C)[C@H](NC(=O)CN)C(=O)N[C@@H](Cc1c[nH]c2ccccc12)C(=O)N[C@@H](CCCCN)C(=O)N[C@@H](CO)C(=O)N[C@@H](CC(C)C)C(=O)N[C@@H](Cc1ccccc1)C(=O)N[C@H](C(=O)N[C@@H](CCCCN)C(=O)N[C@@H](CC(C)C)C(=O)N[C@@H](CC(C)C)C(=O)N[C@@H](CCCCN)C(=O)NCC(N)=O)[C@@H](C)O [GIWKSLFTKLLKG]
MIC (Escherichia coli W160-37): 3.35 µM (≈ 5 µg/mL) | MIC (Staphylococcus aureus): 6.71 µM (≈ 9.99 µg/mL) | MIC (Pseudomonas aeruginosa): 10.1 µM (≈ 15 µg/mL)

CC(C)C[C@H](NC(=O)[C@H](Cc1ccccc1)NC(=O)[C@H](CCCCN)NC(=O)CN)C(=O)N[C@@H](CCCCN)C(=O)N[C@@H](CCCCN)C(=O)N[C@@H](C)C(=O)N[C@@H](CCCCN)C(=O)N[C@@H](CCCCN)C(=O)N[C@@H](Cc1ccccc1)C(=O)NCC(=O)N[C@@H](CCCCN)C(N)=O [GKFLKKAKKFGK]
MIC [11]: > 371 µM | MIC [12]: ≥ 371 µM | MIC [6]: > 371 µM | MIC [13]: ≥ 262 µM

CC[C@H](C)[C@@H]1NC(=O)[C@H](CCCCN)NC(=O)[C@@H](NC(=O)[C@H](CC(C)C)NC(=O)[C@@H](NC(=O)[C@H](CCC(N)=O)NC(=O)[C@@H]2CCCN2C(=O)[C@H](CC(C)C)NC(=O)[C@H](Cc2ccccc2)NC(=O)[C@H](CC(N)=O)NC(=O)[C@H](C)NC(=O)[C@H](C)NC(=O)[C@H](CC(C)C)NC(=O)CN)[C@@H](C)CC)CSSC[C@@H](C(N)=O)NC(=O)[C@H](CCCCN)NC(=O)[C@H](CCCN=C(N)N)NC(=O)[C@H](C)NC1=O [GLAANFLPQILCKIARKC]
MIC [14]: 25.5 µM (≈ 49.9 µg/mL) | MIC (Escherichia coli MG1655): ≥ 51 µM | MIC [11]: > 51 µM | MIC [15]: ≥ 51 µM | MIC (Vibrio cholerae): 25.5 µM (≈ 49.9 µg/mL)

CC[C@H](C)[C@H](N)C(=O)N[C@@H](CC(N)=O)C(=O)N[C@@H](CC(C)C)C(=O)N[C@@H](CCCCN)C(=O)NCC(=O)N[C@@H](CC(C)C)C(=O)N[C@H](C(=O)N[C@@H](CCCCN)C(=O)N[C@@H](CCCCN)C(=O)N[C@H](C(=O)N[C@@H](C)C(=O)N[C@@H](CO)C(=O)N[C@@H](CC(C)C)C(=O)N[C@@H](CC(C)C)C(=O)N[C@H](C(=O)O)[C@@H](C)O)C(C)C)[C@@H](C)CC [INLKGLIKKVASLLT]
MIC [1]: ≥ 100 µM | MIC [16]: 100 µM (≈ 161 µg/mL) | MIC [10]: 25 µM (≈ 40.3 µg/mL) | MIC (Botrytis cinerea): 5 µM (≈ 8.06 µg/mL)

CC[C@H](C)[C@H](NC(=O)[C@H](CO)NC(=O)[C@H](CCCN=C(N)N)NC(=O)CNC(=O)[C@H](CCC(=O)O)NC(=O)[C@H](CC(C)C)NC(=O)[C@H](CCC(=O)O)NC(=O)[C@H](CC(C)C)NC(=O)[C@H](CO)NC(=O)[C@H](CC(=O)O)NC(=O)[C@H](Cc1ccc(O)cc1)NC(=O)[C@H](CCCN=C(N)N)NC(=O)[C@H](Cc1ccc(O)cc1)NC(=O)CNC(=O)[C@H](Cc1ccccc1)NC(=O)[C@@H](N)CCCCN)C(=O)N[C@@H](CO)C(=O)N[C@@H](CCCN=C(N)N)C(=O)N[C@H](C(=O)N[C@@H](CC(=O)O)C(=O)N[C@@H](CCC(=O)O)C(=O)N[C@@H](CC(C)C)C(=O)N[C@H](C(=O)N[C@@H](CCC(N)=O)C(=O)N[C@@H](CCC(N)=O)C(=O)N[C@@H](CCCN=C(N)N)C(=O)O)[C@@H](C)CC)[C@@H](C)CC [KFGYRYDSLELEGRSISRIDELIQQR]
MIC [17]: 0.632 µM (≈ 2.01 µg/mL) | MIC (Bacillus subtilis): 2.45 µM (≈ 7.77 µg/mL)

CC(C)C[C@H](NC(=O)[C@H](Cc1ccccc1)NC(=O)[C@@H](N)CCCCN)C(=O)N[C@@H](CCCCN)C(=O)N[C@@H](CCCCN)C(=O)N[C@@H](C)C(=O)N[C@@H](CCCCN)C(=O)N[C@@H](CCCCN)C(=O)N[C@@H](Cc1ccccc1)C(=O)NCC(=O)N[C@@H](CCCCN)C(=O)N[C@@H](C)C(N)=O [KFLKKAKKFGKA]
MIC [11]: 367 µM (≈ 512 µg/mL) | MIC [12]: ≥ 367 µM | MIC [6]: > 367 µM | MIC [13]: ≥ 367 µM

CC[C@H](C)[C@H](NC(=O)[C@H](CCCCN)NC(=O)[C@H](CS)NC(=O)[C@H](CC(C)C)NC(=O)[C@@H](NC(=O)[C@H](CCC(N)=O)NC(=O)[C@@H]1CCCN1C(=O)[C@H](CC(C)C)NC(=O)[C@H](Cc1ccccc1)NC(=O)[C@H](CC(N)=O)NC(=O)[C@H](C)NC(=O)[C@H](C)NC(=O)[C@H](CC(C)C)NC(=O)CNC(=O)[C@H](C)NC(=O)[C@@H](NC(=O)[C@@H](N)CC(C)C)[C@@H](C)CC)[C@@H](C)CC)C(=O)N[C@@H](C)C(=O)N[C@@H](CCCN=C(N)N)C(=O)N[C@@H](CCCCN)C(=O)N[C@@H](CS)C(N)=O [LIAGLAANFLPQILCKIARKC]
MIC [14]: ≥ 44.3 µM | MIC (Escherichia coli MG1655): 11.1 µM (≈ 25 µg/mL) | MIC [11]: > 44.3 µM | MIC [18]: 44.3 µM (≈ 100 µg/mL) | MIC [15]: 22.2 µM (≈ 50 µg/mL) | MIC [19]: > 44.3 µM | MIC (Vibrio cholerae): 11.1 µM (≈ 25 µg/mL)

CC[C@H](C)[C@H](NC(=O)[C@H](CC(C)C)NC(=O)[C@@H]1CCCN1C(=O)[C@H](Cc1c[nH]c2ccccc12)NC(=O)[C@H](CCCCN)NC(=O)[C@H](Cc1c[nH]c2ccccc12)NC(=O)[C@@H]1CCCN1C(=O)[C@H](CC(C)C)NC(=O)[C@H](CC(C)C)NC(=O)[C@@H]1CCCN1C(=O)[C@H](Cc1c[nH]c2ccccc12)NC(=O)[C@H](CCCN=C(N)N)NC(=O)[C@@H](N)CCCN=C(N)N)C(N)=O [RRWPLLPWKWPLI]
MIC [20]: 3.55 µM (≈ 6.25 µg/mL) | MIC [21]: 14.2 µM (≈ 25 µg/mL) | MIC [22]: 3.55 µM (≈ 6.25 µg/mL)

CC(C)C[C@H](NC(=O)[C@H](CCCCN)NC(=O)[C@H](CC(C)C)NC(=O)[C@H](CC(C)C)NC(=O)[C@H](Cc1c[nH]c2ccccc12)NC(=O)[C@@H](N)CCCN=C(N)N)C(=O)NCC(=O)N[C@@H](Cc1cnc[nH]1)C(=O)N[C@@H](Cc1cnc[nH]1)C(=O)NCC(=O)N[C@@H](CCCN=C(N)N)C(=O)O [RWLLKLGHHGR]
MIC [23]: ≥ 32 µM | MIC [24]: ≥ 64 µM | MIC [25]: ≥ 128 µM | MIC [26]: ≥ 64 µM

CC(C)[C@H](NC(=O)[C@H](CCCN=C(N)N)NC(=O)[C@@H](NC(=O)[C@H](CCCN=C(N)N)NC(=O)[C@H](Cc1c[nH]c2ccccc12)NC(=O)[C@H](CCCN=C(N)N)NC(=O)[C@@H](N)Cc1c[nH]c2ccccc12)C(C)C)C(=O)N[C@@H](Cc1c[nH]c2ccccc12)C(=O)N[C@@H](CCCN=C(N)N)C(N)=O [WRWRVRVWR]
MIC [27]: ≥ 100 µM | MIC [28]: 1.79 µM (≈ 2.5 µg/mL)
